Assay results as given in PMC3368886, “ATPase Cycle and DNA Unwinding Kinetics of RecG Helicase” (PLoS ONE, 2012).

Assays:
Format in all cases: biochemical
RecG⋅DNA(A40:B40) = biological target: T1, RecG⋅DNA(A40:B40) (Thermotoga maritima, UniProt Q9WY48); test: Single turnover Pi release kinetics with MDCC-PBP
T1 construct: made in house
T1 sequence (Q9WY48 1-780): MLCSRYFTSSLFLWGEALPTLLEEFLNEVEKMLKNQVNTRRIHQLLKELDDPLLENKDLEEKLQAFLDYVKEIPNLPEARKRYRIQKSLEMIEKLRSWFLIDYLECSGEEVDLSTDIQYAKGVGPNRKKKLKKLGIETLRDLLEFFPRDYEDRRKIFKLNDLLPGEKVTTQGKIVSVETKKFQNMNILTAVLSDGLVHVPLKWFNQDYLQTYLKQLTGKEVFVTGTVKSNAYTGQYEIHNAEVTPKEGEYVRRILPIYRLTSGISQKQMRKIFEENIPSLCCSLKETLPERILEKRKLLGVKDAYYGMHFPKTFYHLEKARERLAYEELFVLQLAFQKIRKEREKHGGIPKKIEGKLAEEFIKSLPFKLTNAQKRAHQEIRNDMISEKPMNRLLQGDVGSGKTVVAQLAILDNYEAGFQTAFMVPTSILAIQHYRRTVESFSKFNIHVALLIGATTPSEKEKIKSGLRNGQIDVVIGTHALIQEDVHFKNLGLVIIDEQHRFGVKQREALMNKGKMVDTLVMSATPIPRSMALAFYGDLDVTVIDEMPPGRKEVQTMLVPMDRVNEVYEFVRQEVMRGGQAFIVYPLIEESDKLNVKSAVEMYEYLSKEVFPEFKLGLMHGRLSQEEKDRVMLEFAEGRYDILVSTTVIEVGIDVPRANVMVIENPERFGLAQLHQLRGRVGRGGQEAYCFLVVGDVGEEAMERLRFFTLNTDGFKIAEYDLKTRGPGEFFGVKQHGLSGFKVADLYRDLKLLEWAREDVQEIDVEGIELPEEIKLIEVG
Procedure: Using the phosphate biosensor, MDCC-PBP [13], the kinetics of Pi release were measured under the same conditions (Figure 4A). Fitting the trace by a lag then a single exponential increase gave rate constants of 3.3 s^−1 and 0.21 s^−1. This rate constant for the lag was similar to the observed rate constant for binding at this concentration. The exponential increase had the same rate constant for the slow phase of the mant fluorescence and for the quench-flow measurement of mantADP formation. Thus Pi release occurs rapidly, following the rate-determining cleavage step.
Stopped-flow experiments were performed in a HiTech SF61DX2 apparatus (TgK Scientific Ltd, Bradford-on-Avon, UK) with a mercury-xenon light source and HiTech KinetAsyst 3 or Kinetic Studio 1 software. For MDCC-PBP fluorescence, the excitation wavelength used was 436 nm and a 455 nm cut-off filter (Schott glass) used to collect emitted light. The signal was calibrated using known concentrations of Pi. The solutions contained the Pi mop, to minimize phosphate contamination and comprising 0.01 unit ml^−1 bacterial purine nucleoside phosphorylase and 200 µM 7-methylguanosine. For mant fluorescence, 366 nm was used to excite and a 400 nm cut-off filter (Schott glass) used to collect light. Measurements of Cy3 fluorescence used 547 nm excitation and a 570 nm cut-off filter. In experiments described, the quoted concentrations are those in the mixing chamber, except where stated. Data were fitted to theoretical curves using the HiTech software or Grafit.

RecG [1] = biological target: T2, RecG (Thermotoga maritima, UniProt Q9WY48); test: Steady-state ATPase rate measurements with phosphate biosensor MDCC-PBP; details: for K m / k cat: 20°C, 10 nM RecG, 500 nM DNA junction (A40:B40)
T2 construct: made in house
T2 sequence (Q9WY48 1-780): T1 sequence (Q9WY48 1-780)
Source text: Steady-state measurements were made to gain an overall assessment of the reaction and the affinities of various nucleotides before investigating the individual steps in the ATPase cycle. A two-strand DNA junction, which contains two 20-bp regions of complementary and non-complementary sequences (A40:B40 Figure 1 and Table S1), was used in all these measurements. This forms a Y-shape structure and RecG translocates one single-stranded arm, but then remains bound to the end of the junction still hydrolyzing ATP [10].
All reactions with RecG and DNA were done at 20°C in a buffer containing 50 mM Tris⋅acetate (pH 8.0), 30 mM potassium acetate, 3 mM magnesium acetate and 1 mM DTT. ATPase measurements using MDCC-PBP were taken in the presence of a Pi mop, as described above. Steady-state ATPase measurements were taken in a solution (60 µl) at 20°C, containing 10 nM RecG, 500 nM DNA junction (A40∶B40, see Table S1) and 10 µM MDCC-PBP with varying nucleotide concentrations as substrate or inhibitor [23].

RecG [2] = biological target: T2, RecG; test: Phosphate-water oxygen exchange during hydrolysis; details: for k +3 /k −2: γ-18O3 nucleotide, 25°C
Source text: In order to get information about the reverse of cleavage step 2 (scheme in Figure 2A), phosphate-water oxygen exchange measurements were done using (γ-^18O3)mantATP. Intermediate exchange can occur between terminal oxygens of the nucleotide and water during hydrolysis, giving information about the value of k +3 /k −2, as previously described. In this case, (γ-^18O3)mantATP was used as substrate and partial hydrolysis occurred in the presence of RecG⋅DNA, as described in the materials and methods section. The Pi had very similar distribution of oxygen-18 as with (γ-^18O3)mantATP, consistent with essentially little reversal of the cleavage step (k +3 /k −2≥9). This is consistent with a rapid release of Pi.
For intermediate exchange during ATP hydrolysis, 0.5 µM RecG and 1 mM (γ-^18O3)ATP or (γ-^18O3)mantATP were incubated for 10 min (+1 µM DNA A40∶B40, Table S1) or 20 min (- DNA) at 25°C in a volume of 100 µl in the buffer described below. Pi was analyzed for distribution of different ^18O-labeled species on a mass spectrometer as described previously, [37] except that during purification, the ^18O-labeled Pi was detected by MDCC-PBP, rather than radioactive tracers.
Supplementary file pone.0038270.s005.pdf: Table S2 Oxygen exchange during ATP or mantATP hydrolysis by RecG: distributions of oxygen-18 in the Pi product. Experiments were performed as described in Materials and Methods. The data were corrected for isotopic enrichment of the starting nucleotide, 93% for (γ-^18O3)mantATP and 98% for (γ-^18O3) ATP. […] Each distribution is the average of three mass spectral assays. Thus the distributions are for the product Pi as though the starting enrichment was 100%. In all cases there was very little oxygen exchange as shown by the large peak of (^18O3)Pi, in which all three γ-oxygens of ATP are retained. The distributions were then used to compute the ratio of rate constants for Pi release (k +3) and on-enzyme ATP resynthesis (k −2) as in Figure 2 [14], [37].

[3] = 0.5 µM mantATP, 2.5 µM RecG, 5 µM DNA

| SMILES | Pi release: rate constant of exponential increase (RecG⋅DNA(A40:B40); [3]) [s⁻¹] | Pi release: rate constant of lag (RecG⋅DNA(A40:B40); [3]) [s⁻¹] | k +3 (Pi release) (RecG⋅DNA(A40:B40); 20°C, Table 2 summary) [s⁻¹] | K m (RecG [1]) | k cat (RecG [1]) | lower ATPase activity than ATP (RecG [1]; mantATP vs ATP) [fold] | (18O1)Pi in product Pi (RecG [2]; DNA present) [%] | (18O2)Pi in product Pi (RecG [2]; DNA present) [%] | (18O3)Pi in product Pi (RecG [2]; DNA present) [%] | k +3 /k −2 (RecG [2]; DNA present (A40∶B40)) | (18O1)Pi in product Pi (RecG [2]; no DNA) [%] | (18O2)Pi in product Pi (RecG [2]; no DNA) [%] | (18O3)Pi in product Pi (RecG [2]; no DNA) [%] | k +3 /k −2 (RecG [2]; no DNA) |
| --- | --- | --- | --- | --- | --- | --- | --- | --- | --- | --- | --- | --- | --- | --- |
| CNc1ccccc1C(=O)O[C@H]1[C@@H](O)[C@H](n2cnc3c(N)ncnc32)O[C@@H]1COP(=O)(O)OP(=O)(O)OP(=O)(O)O [mantATP, 2′(3′)-O-(N-methylanthraniloyl)ATP] | 0.21 | 3.3 | >10 | 1.9 (±0.6) µM | 0.3 (±0.1) s^−1 | 30 | 0.4 | 7.5 | 92.1 | 8.7 | 0.4 | 7.0 | 92.6 | 9.5 |
| Nc1ncnc2c1ncn2[C@@H]1O[C@H](COP(=O)(O)OP(=O)(O)OP(=O)(O)O)[C@@H](O)[C@H]1O [ATP] |  |  |  | 9 (±2) µM | 8.3 (±1.7) s^−1 |  | 2.8 | 2.3 | 94.9 | 18 | 6.1 | 4.0 | 89.9 | 9.0 |
